Source: ChEMBL document CHEMBL1201862, “PubChem BioAssay data set” (2004)
Active and inactive are the calls of the source.

Columns and labels:
cells [1] = type: functional, cell-based
cells [2] = type: functional, cell-based; remark: listed apart in the source
[3] = microbe, parasite or virus in culture; type: functional; conditions: Mycobacterium tuberculosis
[4] = tested on: Streptococcus sp. 'group A'; assay: growth inhibition of control SK(-) GAS strain, dose response, counter-screen for streptokinase expression inhibitor project, luminescence, kanamycin, BacTiterGlo, confirmation (AID 1900); type: functional, organism-based
Streptokinase A = target: T1, Streptokinase A (Streptococcus pyogenes serotype M1, UniProt P10520); assay: S. pyogenes streptokinase expression inhibitors, potency, dose response, plasminogen activation absorbance, OD405 (AID 1914); type: functional, Streptococcus pyogenes M1 GAS;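 also: secreted streptokinase activity via plasminogen activation per viability signal from cell pellet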
T1 sequence (P10520 whole entry): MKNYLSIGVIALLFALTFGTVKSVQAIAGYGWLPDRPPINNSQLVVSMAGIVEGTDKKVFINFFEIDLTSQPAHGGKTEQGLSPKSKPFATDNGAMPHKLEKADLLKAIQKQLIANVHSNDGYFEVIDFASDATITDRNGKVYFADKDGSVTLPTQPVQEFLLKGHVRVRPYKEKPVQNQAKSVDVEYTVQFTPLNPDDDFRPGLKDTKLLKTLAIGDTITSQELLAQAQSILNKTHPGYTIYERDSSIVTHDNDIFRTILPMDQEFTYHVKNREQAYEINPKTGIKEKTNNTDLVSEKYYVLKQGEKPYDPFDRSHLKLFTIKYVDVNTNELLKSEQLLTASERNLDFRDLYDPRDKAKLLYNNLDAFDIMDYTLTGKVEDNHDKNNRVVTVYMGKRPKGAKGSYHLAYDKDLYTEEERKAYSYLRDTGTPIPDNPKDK

Streptococcus = assay: Group A Streptococcus viability loss, dose response, counter-screen for streptokinase expression inhibitor project, luminescence, BacTiterGlo (AID 1915); type: functional, organism-based;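 also: potency for reduction of bacterial viability or growth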
[5] = target: T2, Short transient receptor potential channel 4 (Mus musculus, UniProt Q9QUQ5); assay: mouse TRPC4 channel inhibitors, dose response, cell-based, HEK293 TRPC4/mu-opioid, Fluo-4 calcium (AID 434942); type: functional;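 also: potency of inhibitors blocking the TRPC4 calcium response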
T2 sequence (Q9QUQ5 whole entry): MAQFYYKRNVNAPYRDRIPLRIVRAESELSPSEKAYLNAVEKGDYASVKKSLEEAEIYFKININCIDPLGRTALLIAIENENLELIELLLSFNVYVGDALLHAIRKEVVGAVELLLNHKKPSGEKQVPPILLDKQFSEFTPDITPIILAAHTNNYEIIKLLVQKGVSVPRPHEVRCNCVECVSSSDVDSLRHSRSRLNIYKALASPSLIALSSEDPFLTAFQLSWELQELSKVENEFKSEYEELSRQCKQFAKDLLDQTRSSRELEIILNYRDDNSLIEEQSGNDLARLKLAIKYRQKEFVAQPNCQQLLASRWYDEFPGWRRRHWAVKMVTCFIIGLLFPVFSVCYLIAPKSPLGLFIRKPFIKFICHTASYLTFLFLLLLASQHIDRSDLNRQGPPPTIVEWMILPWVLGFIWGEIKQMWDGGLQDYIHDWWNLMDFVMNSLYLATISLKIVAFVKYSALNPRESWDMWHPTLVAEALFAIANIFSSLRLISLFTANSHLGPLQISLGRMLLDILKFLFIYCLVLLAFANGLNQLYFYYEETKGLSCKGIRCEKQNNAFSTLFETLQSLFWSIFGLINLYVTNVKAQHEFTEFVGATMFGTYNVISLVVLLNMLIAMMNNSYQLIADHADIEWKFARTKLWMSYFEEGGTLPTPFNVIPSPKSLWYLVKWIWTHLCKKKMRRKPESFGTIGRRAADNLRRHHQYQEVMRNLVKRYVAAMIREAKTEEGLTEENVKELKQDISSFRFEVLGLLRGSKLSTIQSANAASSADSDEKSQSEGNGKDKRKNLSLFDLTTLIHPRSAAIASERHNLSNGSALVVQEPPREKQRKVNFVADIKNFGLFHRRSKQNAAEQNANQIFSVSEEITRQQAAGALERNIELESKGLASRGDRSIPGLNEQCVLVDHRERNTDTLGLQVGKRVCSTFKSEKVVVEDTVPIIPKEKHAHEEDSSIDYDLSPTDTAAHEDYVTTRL

[6] = target: T3, Heat shock factor protein 1 (Mus musculus, UniProt P38532); assay: HSF1 potentiators in luciferase reporter cells, confirmation, cell-based, NIH3T3, luminescence, dose retest (AID 435004); type: functional;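 also: stress induced by proteasome inhibitor MG132 added 30 min after compound; luciferase reporter driven by HSF1 response element in NIH3T3 cells; actives raise luminescence as potentiators of the MG132 stress response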
T3 sequence (P38532 whole entry): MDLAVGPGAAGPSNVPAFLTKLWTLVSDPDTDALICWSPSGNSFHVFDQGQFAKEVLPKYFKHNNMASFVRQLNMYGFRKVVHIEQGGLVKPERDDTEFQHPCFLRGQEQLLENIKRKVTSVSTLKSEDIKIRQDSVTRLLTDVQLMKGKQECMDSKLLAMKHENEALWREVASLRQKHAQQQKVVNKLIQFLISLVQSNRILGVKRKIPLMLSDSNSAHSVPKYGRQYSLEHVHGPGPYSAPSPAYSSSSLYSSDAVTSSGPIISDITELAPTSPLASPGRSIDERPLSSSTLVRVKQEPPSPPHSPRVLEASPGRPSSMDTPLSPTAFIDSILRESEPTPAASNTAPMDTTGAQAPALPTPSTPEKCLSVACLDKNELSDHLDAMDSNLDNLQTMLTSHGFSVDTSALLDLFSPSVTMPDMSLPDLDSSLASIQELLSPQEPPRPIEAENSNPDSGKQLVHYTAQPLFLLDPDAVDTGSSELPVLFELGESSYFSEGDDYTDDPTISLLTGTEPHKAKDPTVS

Paired box protein Pax-8 = Paired box protein Pax-8 (Homo sapiens, UniProt Q06710); assay: inhibitors of PAX8-driven TPO luciferase reporter, dose response, RMG-I cells, cherry-pick (AID 687027); type: functional, cell-based;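 also: luciferase reporter driven by Pax8 target thyroperoxidase promoter measured by SteadyGlo luminescence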
Paired box protein Pax-8, sequence (Q06710 whole entry): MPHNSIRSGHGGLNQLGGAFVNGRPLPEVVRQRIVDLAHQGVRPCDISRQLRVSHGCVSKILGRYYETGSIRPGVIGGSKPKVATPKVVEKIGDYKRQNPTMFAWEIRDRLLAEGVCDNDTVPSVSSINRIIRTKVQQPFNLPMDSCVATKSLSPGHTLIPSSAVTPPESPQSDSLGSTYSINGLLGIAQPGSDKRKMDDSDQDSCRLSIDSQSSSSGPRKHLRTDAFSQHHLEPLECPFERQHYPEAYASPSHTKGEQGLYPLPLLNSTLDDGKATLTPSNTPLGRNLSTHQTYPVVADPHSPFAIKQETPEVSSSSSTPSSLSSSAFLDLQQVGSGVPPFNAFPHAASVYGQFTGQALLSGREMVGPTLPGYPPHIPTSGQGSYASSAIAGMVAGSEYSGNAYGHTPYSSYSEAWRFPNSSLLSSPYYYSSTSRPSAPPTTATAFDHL

[7] = cytotoxicity in OVCAR8 ovarian cancer cells, dose response, PAX8 project, cell-based, plate reader, dry powder samples (AID 743197); type: functional; conditions: OVCAR-8
[8] = inhibitors of firefly luciferase expression or activity, dose response, H4 neuroglioma cells, luminescence (AID 1990); type: functional, cell-based
BJ [9] = assay: cytotoxicity toward BJ-TERT fibroblasts, dose response, cell-based, RAS-independent, luminescence (AID 1933); type: functional; conditions: Homo sapiens
[10] = Luminescence Cell-Based Dose Response HTS to Identify Inhibitors of 5'UTR Stem-Loop Driven Prion Protein mRNA Translation in H4 Neuroglioblastoma Cells. [Related pubchem assays: 1827 (Project Summary), 1813 (Primary HTS)]; type: functional
[11] = inhibitors of SNCA 5'UTR-driven reporter translation, confirmation, H4 neuroglioma cells, luminescence (AID 1988); type: functional, cell-based
BJ [12] = assay: cells; type: functional, cell-based; conditions: Homo sapiens
BJ [13] = assay: cytotoxicity toward BJ-TERT-LT-ST fibroblasts, dose response, cell-based, RAS-independent, luminescence (AID 1935); type: functional; conditions: Homo sapiens;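 also: BJ fibroblasts immortalized with TERT plus LT and ST oncogenes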
[14] = cytotoxicity toward DRD oncogenic fibroblasts, dose response, cell-based, non-viral oncogenic, luminescence (AID 1934); type: functional; conditions: Homo sapiens
Nonstructural protein 1 = Nonstructural protein 1 (Influenza A virus, UniProt Q194T2); type: functional, Influenza A virus (A/California/07/2009(H1N1))
Nonstructural protein 1, sequence (Q194T2 whole entry): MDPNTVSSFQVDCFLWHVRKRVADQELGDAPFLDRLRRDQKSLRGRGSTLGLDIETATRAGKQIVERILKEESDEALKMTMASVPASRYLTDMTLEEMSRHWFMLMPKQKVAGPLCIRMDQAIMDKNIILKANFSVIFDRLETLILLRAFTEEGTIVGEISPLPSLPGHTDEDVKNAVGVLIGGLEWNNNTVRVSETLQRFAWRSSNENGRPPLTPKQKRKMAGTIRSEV

INS1 = assay: beta cell apoptosis inhibitors, cytokine rescue, dose response, luminescence, retest (AID 449756); type: functional, cell-based; conditions: Rattus norvegicus;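 also: cell death triggered by IL-1 beta plus TNF-alpha plus IFN-gamma mixture; protective hits raise ATP signal compared with cytokine alone wells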
[15] = target: T2, Short transient receptor potential channel 4; assay: mouse TRPC4 channel activators, dose response, cell-based, HEK293 TRPC4/mu-opioid, Fluo-4 calcium (AID 434937); type: functional

In the case of `CCCn1c(O)cc(=O)nc1SCC(=O)N1CCc2ccccc2C1`, the IC50 (cells [1]) is reported as > 29.9 µM (inactive) and the EC50 (cells [2]) is reported as > 29.9 µM (inactive).
With `Cc1cc(=O)oc2c(C)c(OCC(=O)N3CCN(C(=O)C4COc5ccccc5O4)CC3)ccc12` (centres undefined) the CC50 [3] was > 40 µM (active).
With `Cc1cccc(/C=c2\s/c(=C\C(=O)C(C)(C)C)[nH]c2=O)c1` the EC50 [4] was 10 µM (active), the EC50 (Streptokinase A) was > 150 µM (not active) and the CC50 [3] was 24.7 µM (active). The EC50 (Streptococcus) was 17.2 µM (active).
For `COc1ccccc1CNCC(c1ccccc1)c1ccccc1`, the EC50 [5] was 4.73 µM (active) and the EC50 [6] was > 260 µM (inactive).
In the case of `ClCc1nc2ccccc2c2ccccc12`, the CC50 [3] is reported as 18.6 µM (active).
For `C[C@@H]1CCCCO[C@@H](CN(C)S(=O)(=O)c2cccs2)[C@H](C)CN([C@H](C)CO)C(=O)c2cc(NC(=O)Nc3ccc(C(F)(F)F)cc3)ccc2O1`, the AC50 (Paired box protein Pax-8) was 3.17 µM (active) and the AC50 [7] was > 70 µM (inactive).
For `COc1cccc(S(=O)(=O)Nc2ccc3c(c2)[C@H]2C[C@H](CC(=O)NCc4ccccc4F)O[C@H](CO)[C@H]2O3)c1`, the AC50 (Paired box protein Pax-8) was 16.1 µM (active) and the AC50 [7] was > 70 µM (inactive).
In the case of `Cc1[nH]n(-c2ccccc2)c(=O)c1N=Nc1c(O)cc(S(=O)(=O)N(C)C)c2ccccc12`, the EC50 [8] is reported as 3.37 µM (active), the EC50 [4] is reported as 2.21 µM (active) and the EC50 (BJ [9]) is reported as 7.94 µM (active). The EC50 [10] was 6.77 µM (active), the EC50 [11] was 2.12 µM (active) and the EC50 (BJ [12]) was 10.3 µM (active). For the same molecule, the EC50 (BJ [13]) was 10.1 µM (active), the EC50 [14] was 7.77 µM (active) and the EC50 (Streptococcus) was 6.64 µM (active). The IC50 (Nonstructural protein 1) was 19.8 µM (active) and the AC50 (INS1) was 0.949 µM (active).
For `COc1cc(C(=O)N/N=C(\C)c2ccccn2)cc(OC)c1OC`, the IC50 (Nonstructural protein 1) was 16.9 µM (active) and the AC50 (INS1) was 1.94 µM (active).
With `COc1ccc(CNCCc2ccc3c(c2)OCO3)cc1Br` the EC50 [15] was 3.76 µM (active).
With `C=C(C)Cn1c(SCC)nc2ccccc2c1=O` the EC50 [5] was 4.73 µM (active).
